Source: patent US20120214846A1, “HEXAHYDROCYCLOPENTYL[F]INDAZOLE PYRIDYL ETHANOLS AND DERIVATIVES THEREOF AS SELECTIVE GLUCOCORTICOID RECEPTOR MODULATORS” (MERCK SHARP & DOHME CORP, priority 2009, published 2012)
≈ marks a conversion by molar mass, not a printed value. Where two headings read alike, the source gives them in different places.

How the values were obtained:
Solubility at pH 2 = format: physicochemical
[1] = test system: female Sprague-Dawley rats, oxazolone (OX) contact dermatitis; assay: In Vivo Inflammation Assay (oxazolone contact dermatitis model); design: key to Inflammation Assay Glucose Effect / GL *: +: the glucose level increased compared to vehicle; −: the glucose level decreased compared to vehicle; conditions: for Inflammation Assay Glucose Effect / Inflammation Assay Anti-inflammatory Effect: rat; for Inflammation Assay Glucose Effect: glucose level compared to vehicle; for Inflammation Assay Anti-inflammatory Effect: relative to control compound; for GL *: Table 4, literature compounds, glucose effect
Experimental: In Vivo Inflammation Assay
Intact adult (6 month old) female Sprague-Dawley rats are used in the oxazolone (OX) contactdermatitis model. Rats were sensitized on the ventral abdomen with OX on Day 0. On Days 7 and 9, a randomly-selected ear was challenged (same ear each time) with OX; the other was treated with vehicle. Daily treatment begun on Day 7 and continued for 7d with test compounds at different doses and 1.3 mpk 6-methlyprednisolone or 0.1 mpk DEX as positive controls. The thickness of both ears are measured on Days 11 and 14. Necropsy occurred on Day 14. The rat is first weighed, then anesthetized in a CO2 chamber until near death. Approximately 5 ml whole blood is obtained by cardiac puncture. The rat is then examined for certain signs of death and completeness. Tissues are dissected in a highly stylized fashion. Then the following endpoints were evaluated: a) inhibiting ear inflammation induced by oxazalone, b) raising serum insulin, c) reducing serum ACTH, d) reducing spleen weight, e) reducing skin thickness, f) reducing body weight, g) increasing expression of bone-related genes with potential relationship to negative glucocorticoid effects on bone; e) changes in molecular markers that correlate with skin inflammation, skin thinning, muscle atrophy and glucose metabolism in liver. All blood samples were collected between 1330-1530 hours, ˜4-5 hrs after the last compound treatment.
Primary data for this assay are left and right ear thickness. Inter-ear thickness difference (etd) is used for the estimating the level of inflammation and effectiveness of the compounds is determined by their ability to reduce the increase the thickness of the inflamed ear. Back of the rat skin thickness, spleen weight, serum insulin as well as the effects of gcs on the expression of molecular markers in skin inflammation, skin atrophy, muscle atrophy and glucose metabolism in liver are measured. Data are analyzed by anova plus fisher plsd post-hoc test to identify intergroup differences.

GR = target: T1, GR (Homo sapiens, UniProt P04150); assay: Trans-Activation Modulation of Glucocorticoid Receptor Assay (GRAMMER), MMTV-LUC reporter, A549 cells; format: cell-based; design: endogenous in cells
T1 sequence (P04150 1-777): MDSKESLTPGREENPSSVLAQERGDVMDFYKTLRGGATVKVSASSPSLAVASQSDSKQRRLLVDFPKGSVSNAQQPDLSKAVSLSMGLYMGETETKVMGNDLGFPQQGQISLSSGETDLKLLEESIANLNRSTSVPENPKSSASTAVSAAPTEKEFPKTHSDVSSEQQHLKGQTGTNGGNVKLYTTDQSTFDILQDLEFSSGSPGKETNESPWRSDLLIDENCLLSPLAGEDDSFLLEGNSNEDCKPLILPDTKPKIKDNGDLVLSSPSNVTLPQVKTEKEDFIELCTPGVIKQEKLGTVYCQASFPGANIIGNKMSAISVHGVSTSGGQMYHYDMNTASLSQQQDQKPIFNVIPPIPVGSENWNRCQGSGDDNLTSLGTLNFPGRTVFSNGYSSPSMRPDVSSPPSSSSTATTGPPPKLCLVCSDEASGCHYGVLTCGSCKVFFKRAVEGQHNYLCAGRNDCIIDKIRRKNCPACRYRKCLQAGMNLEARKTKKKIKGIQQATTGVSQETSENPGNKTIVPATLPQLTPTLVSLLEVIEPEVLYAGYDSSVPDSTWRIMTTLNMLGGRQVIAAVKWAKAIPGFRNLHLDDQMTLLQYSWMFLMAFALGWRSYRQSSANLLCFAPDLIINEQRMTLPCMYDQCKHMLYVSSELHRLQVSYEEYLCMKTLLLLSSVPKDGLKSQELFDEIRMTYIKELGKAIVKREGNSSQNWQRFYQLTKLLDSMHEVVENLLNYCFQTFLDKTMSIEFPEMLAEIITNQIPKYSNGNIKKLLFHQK
Excerpt: Trans-Activation Modulation of Glucocorticoid Receptor Assay
This assay assesses the ability of test compounds to control transcription from the MMTV-LUC reporter gene in lung adenocarcinoma A549 cells or HeLa cells, a human […] cell line that naturally expresses the human GR. The assay measures induction of a modified MMTV LTR/promoter linked to the LUC reporter gene.
The routine transient assay consists of plating 7,000-25,000 cells/well of a white, clear-bottom 96-well plate. Alternatively, 384-well plates can be used at a cell concentration of 10,000/well. The media that the cells are plated in is “exponential growth medium” which consists of phenol red-free RPMI1640 containing 10% FBS, 4 mM L-glutamine, 20 mM HEPES, 10 ug/mL human insulin, and 20 ug/mL gentamicin. Incubator conditions are 37° C. and 5% CO2. The transfection is done in batch mode. The cells are trypsinized and counted to the right cell number in the proper amount of fresh media. It is then gently mixed with the FuGene6/DNA mix and plated onto the 96 or 384-well plate, all the wells receive 100 uL or 40 uL, respectively, of medium+lipid/DNA complex then incubated 37° C. overnight. The transfection cocktail consists of serum-free OptiMEM, FuGene6 reagent and DNA. The manufacturer's (Roche Biochemical) protocol for cocktail setup is as follows: The lipid to DNA ratio is approximately 2.5:1 and the incubation time is 20 min at room temperature. Sixteen to 24 hours after transfection, the cells are treated with dexamethasone to a final concentration of 10 nM as well as the compound of interest, such that final DMSO (vehicle) concentration is equal to or less than 1%. Each plate also contains samples that are treated with 10 nM dexamethasone alone, which is used as the 100% activity control. The cells are exposed to the compounds for 24 hours. After 24 hours, the cells are lysed by a Promega cell culture lysis buffer for approximately 30 min and then the luciferase activity in the extracts is assayed in the 96-well format luminometer. In 384-well format, Steady-Glo (Promega) or Steady-Lite (PerkinElmer) can be used by adding an equal volume of reagent to the media present in each well. […] Antagonist activity is calculated by determining the decrease in dexamethasone-induced activity in response to compound treatment relative to samples that were treated with dexamethasone alone. […] This transactivation assay can be performed in an agonist and antagonist mode to identify these different activities.
The action of compounds is also tested in an antagonist mode (Anti-GRAMMER) in which the cells are treated with medium containing an agonist such as 10 nM DEX and the ability to agents to inhibit the activation by an agonist is measured.

[2] = pH 2, aqueous buffer, pH 2, read-out: Solubility At pH 2
[3] = A549 cells, inflection point, read-out: Transactivation A549 Cells GRAMMER IP
[4] = A549 cells, relative to 300 nM dexamethasone
[5] = A549, A549 cells, relative to 300 nM dexamethasone, read-out: Transactivation A549 Cells GRAMMER Emax
[6] = pH 2, read-out: Solubility At pH 2
[7] = A549, Table 4, literature compounds, read-out: GRAMMER EMAX
[8] = Table 4, literature compounds, read-out: GRAMMER IP

Row | EC50 (GR; [3]) | Emax (GR; [5]) | solubility (Solubility at pH 2; [6]) | Compound | Inflammation Assay Glucose Effect [1] | Transactivation A549 Cells GRAMMER Emax (GR; [4]) | also measured
1 | 52.1 nM | 15.1% | 18 µM (≈ 8.52 µg/mL) | C[C@]12Cc3cnn(-c4ccc(F)cc4)c3C=C1CC[C@@]2(O)CC(O)c1cc(C(F)(F)F)ccn1 (single isomer, unassigned) [Example 5a] |  |  | 
2 | 158 nM |  | 3 µM (≈ 1.42 µg/mL) | C[C@]12Cc3cnn(-c4ccc(F)cc4)c3C=C1CC[C@@]2(O)CC(O)c1cc(C(F)(F)F)ccn1 (single isomer, unassigned) [Example 5b] |  | 18.1% | 
3 | 320 nM | 18.6% |  | C[C@]12Cc3cnn(-c4ccc(F)cc4)c3C=C1CC[C@@]2(O)CC(O)c1ccc(F)cn1 (single isomer, unassigned) [Example 7a] |  |  | solubility (Solubility at pH 2; [2]): 64 µM (≈ 27.1 µg/mL)
4 | 85.5 nM |  | 35 µM (≈ 14.8 µg/mL) | C[C@]12Cc3cnn(-c4ccc(F)cc4)c3C=C1CC[C@@]2(O)CC(O)c1ccc(F)cn1 (single isomer, unassigned) [Example 7b] |  | 16.6% | 
5 | 17.4 nM |  | 7 µM (≈ 3.39 µg/mL) | C[C@]12Cc3cnn(-c4ccc(F)cc4)c3C=C1CC[C@@]2(O)CC(O)c1cc(Br)ccn1 (single isomer, unassigned) [Example 10a] |  | 8.2% | 
6 | 80 nM |  | 2 µM (≈ 0.969 µg/mL) | C[C@]12Cc3cnn(-c4ccc(F)cc4)c3C=C1CC[C@@]2(O)CC(O)c1cc(Br)ccn1 (single isomer, unassigned) [Example 10b] |  | 19.8% | 
7 |  |  |  | C[C@]12Cc3cnn(-c4ccc(F)cc4)c3C=C1CC[C@@]2(O)C#Cc1ccccc1 [Ex. 1 WO 04/075840 A2, reference compound] |  |  | solubility (Solubility at pH 2; Table 4, literature compounds): poor; GL * [1]: −; Emax (GR; [7]): 6.19%; EC50 (GR; [8]): 385 nM
8 |  |  |  | C[C@]12Cc3cnn(-c4ccc(F)cc4)c3C=C1CCC[C@@H]2[C@@H](O)Cc1ccccc1 [Ex. 22 WO 03/086294 A2, reference compound] |  |  | solubility (Solubility at pH 2; Table 4, literature compounds): poor; GL * [1]: −; Emax (GR; [7]): 61%; EC50 (GR; [8]): 122 nM
9 |  |  |  | C[C@]12Cc3cnn(-c4ccc(F)cc4)c3C=C1CCC[C@@H]2[C@@H](O)CCc1ccccc1 [Ex. 30 WO 03/086294 A2, reference compound] |  |  | solubility (Solubility at pH 2; Table 4, literature compounds): poor; GL * [1]: −; Emax (GR; A549, read-out: GRAMMER EMAX): 48.8%; EC50 (GR; GRAMMER IP, Table 4, literature compounds): 166 nM
10 | 698 nM | 17.5% |  | C[C@]12Cc3cnn(-c4ccc(F)cc4)c3C=C1CC[C@@]2(O)CC(O)c1ncccc1F (stereo partly drawn) [Example 4, (4αS,5R)-1-(4-fluorophenyl)-5-[2-(3-fluoropyridin-2-yl)-2-hydroxyethyl]-4α-methyl-1,4,4α,5,6,7-hexahydrocyclopenta[f]indazol-5-ol] |  |  | solubility (Solubility at pH 2; [2]): < 1 µM
11 | 328 nM | 18.6% |  | C[C@]12Cc3cnn(-c4ccc(F)cc4)c3C=C1CC[C@@]2(O)CC(O)c1ccc(C(F)(F)F)cn1 (stereo partly drawn) [Example 6, (4αS,5R)-1-(4-fluorophenyl)-5-{2-hydroxy-2-[5-(trifluoromethyl)pyridin-2-yl]ethyl}-4α-methyl-1,4,4α,5,6,7-hexahydrocyclopenta[f]indazol-5-ol] |  |  | solubility (Solubility at pH 2; [2]): 4 µM (≈ 1.89 µg/mL)

Row | Compound | EC50 (GR; [3]) | Emax (GR; [5]) | solubility (Solubility at pH 2; [6]) | Inflammation Assay Glucose Effect [1] | Transactivation A549 Cells GRAMMER Emax (GR; [4]) | also measured
12 | Cc1cccnc1C(O)C[C@]1(O)CCC2=Cc3c(cnn3-c3ccc(F)cc3)C[C@@]21C (single isomer, unassigned) [Example 1a] | 116 nM |  |  | − | 64.8% | solubility (Solubility at pH 2; [2]): 148 µM (≈ 62.1 µg/mL); Inflammation Assay Anti-inflammatory Effect [1]: + (the anti-inflammatory activity was equal to or greater than 40% of the effect generated by the control compound)
13 | Cc1cccnc1C(O)C[C@]1(O)CCC2=Cc3c(cnn3-c3ccc(F)cc3)C[C@@]21C (single isomer, unassigned) [Example 1b] | 236 nM |  |  | + | 27.4% | 
14 | C[C@]12Cc3cnn(-c4ccc(F)cc4)c3C=C1CC[C@@]2(O)CC(O)c1ccccn1 (single isomer, unassigned) [Example 2a] | 346 nM | 23.1% |  | − |  | solubility (Solubility at pH 2; [2]): 105 µM (≈ 42.6 µg/mL); Inflammation Assay Anti-inflammatory Effect [1]: + (the anti-inflammatory activity was equal to or greater than 40% of the effect generated by the control compound)
15 | C[C@]12Cc3cnn(-c4ccc(F)cc4)c3C=C1CC[C@@]2(O)CC(O)c1ccccn1 (single isomer, unassigned) [Example 2b] | 255 nM |  | 192 µM (≈ 77.9 µg/mL) | − | 26.8% | Inflammation Assay Anti-inflammatory Effect [1]: + (the anti-inflammatory activity was equal to or greater than 40% of the effect generated by the control compound)
16 | C[C@]12Cc3cnn(-c4ccc(F)cc4)c3C=C1CC[C@@]2(O)CC(O)c1cc(Cl)ccn1 (single isomer, unassigned) [Example 8a] | 129 nM | 21.4% | <1 µM | + |  | Inflammation Assay Anti-inflammatory Effect [1]: + (the anti-inflammatory activity was equal to or greater than 40% of the effect generated by the control compound)
17 | C[C@]12Cc3cnn(-c4ccc(F)cc4)c3C=C1CC[C@@]2(O)CC(O)c1cc(Cl)ccn1 (single isomer, unassigned) [Example 8b] | 26.7 nM |  | 119 µM (≈ 52.4 µg/mL) | + | 25.2% | Inflammation Assay Anti-inflammatory Effect [1]: + (the anti-inflammatory activity was equal to or greater than 40% of the effect generated by the control compound)
